This passage reports IC50 results from US20170349593A1, “BTK INHIBITORS” (MERCK SHARP & DOHME CORP., priority 2014, published 2017).

Assay [1] addresses T1, BTK enzyme (recombinant full-length BTK, hBTK) (Homo sapiens, UniProt Q06187).
T1 construct: recombinant protein from baculovirus-transfected S 19 cells: full-length BTK, 6 HIS-tag cleaved; 6 HIS-tag (cleaved yes); made in house
As to the kind of experiment: Btk enzyme activity assay (LANCE TR-FRET). It is filed as biochemical. Conditions: 50 pM hBTK, 25 μM ATP, 60 minute compound and enzyme incubation, concentration range 1 μM to 0.017 nM, read-out: BTK binding IC50. (In general: TR-FRET usually uses a lanthanide donor and a delayed reading to cut background.)

The subject of assay [2] is adenosine uptake into HeLa cells. The assay can be described thus: [3H]Adenosine uptake assay. The class given is cell-based. Conditions: Homo sapiens; accumulation of [3H]adenosine into HeLa cells; concentration range 10 μM to 0.032 nM; read-out: ADU inhibition IC50. Here is the method: Compounds are also screened in an adenosine uptake functional cellular assay using the protocol described below:
Adenosine uptake activity was determined by monitoring the accumulation of tritiated adenosine into HeLa cells (ATCC catalog #CCL-2) using a PMT-based radiometric detection instrument. In this assay, the potency (IC50) of each compound was determined from a ten point (1:3 serial dilution; final compound concentration range in assay from 10 μM to 0.032 nM) titration curve using the following outlined procedure. To each well of a 96-well CytoStar-T scintillating microplate (Perkin Elmer Catalog #RPNQ0163), 25 000 HeLa cells in 100 μL of growth medium comprising: Minimum Essential Media (Life Technologies Catalog #11095-080)+10% (v/v) foetal bovine serum (FBS; Sigma Aldrich Catalog #F2442) was added. These cells were incubated overnight at 37° C. in a humidified atmosphere with 5% (v/v) CO2. After this time the growth medium was removed and replaced with 40 μL assay medium comprising: Hanks balanced salts solution (HBSS; Thermo Fisher Catalog # SH30268.01)+5% (v/v) FBS. Compound stock solutions in DMSO were diluted in assay medium to 2.5× final compound concentration maintaining a constant DMSO concentration of 0.25% (v/v). 40 μL of compound in assay medium was dispensed into individual wells of the Cytostar-T plates and the plates were incubated for 30 minutes under ambient laboratory conditions. Following this incubation, 20 μL of 500 nM [^3H] adenosine (American Radiolabeled Chemicals Inc. Catalog #ART0287) in assay medium was added and incubated for a further 60 minutes under ambient laboratory conditions. The amount of radiolabel accumulation was then determined using a Perkin Elmer Topcount NXT microplate reader. In brief, HeLa cells adhere to the bottom of the Cytostar-T plate, uptake of [^3H]adenosine into these cells brings the radiolabel into sufficient proximity to excite the scintillant in the base of the plates. These events are captured by single PMT, time-resolved coincidence counting. IC50 values were determined by 4 parameter robust fit of counts per second values vs. (Log10)) compound concentrations.

Molecules are shown by their SMILES.

T1 sequence (Q06187 whole entry): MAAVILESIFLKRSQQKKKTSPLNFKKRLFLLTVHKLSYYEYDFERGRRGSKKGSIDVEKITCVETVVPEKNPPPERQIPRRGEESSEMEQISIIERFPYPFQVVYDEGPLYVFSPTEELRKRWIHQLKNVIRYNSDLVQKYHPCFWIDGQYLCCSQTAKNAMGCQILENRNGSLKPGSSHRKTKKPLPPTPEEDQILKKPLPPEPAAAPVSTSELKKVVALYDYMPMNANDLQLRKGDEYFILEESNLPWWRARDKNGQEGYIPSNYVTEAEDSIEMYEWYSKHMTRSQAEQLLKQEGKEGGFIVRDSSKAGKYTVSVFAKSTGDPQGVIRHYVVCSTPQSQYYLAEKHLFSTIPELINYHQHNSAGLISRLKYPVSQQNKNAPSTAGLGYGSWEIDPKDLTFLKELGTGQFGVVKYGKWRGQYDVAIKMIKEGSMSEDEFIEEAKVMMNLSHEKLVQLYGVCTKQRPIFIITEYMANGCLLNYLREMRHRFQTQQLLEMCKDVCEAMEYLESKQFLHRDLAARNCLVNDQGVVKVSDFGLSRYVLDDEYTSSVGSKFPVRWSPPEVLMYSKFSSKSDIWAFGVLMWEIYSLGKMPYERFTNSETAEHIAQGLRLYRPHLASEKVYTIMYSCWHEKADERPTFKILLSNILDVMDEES

For `COCC(=O)N1C[C@H](c2nc(-c3ccc(C(=O)Nc4cc(C(C)(F)F)ccn4)cc3)c3c(N)nccn23)CC[C@@H]1C` [Example 97, 4-{8-amino-3-[(3R,6S)-1-(methoxyacetyl)-6-methylpiperidin-3-yl]imidazo[1,5-a]pyrazin-1-yl}-N-[4-(1,1-difluoroethyl)pyridin-2-yl]benzamide], the IC50 (commonly the concentration that gives 50% inhibition) in assay [1] was found to be 0.327 nM; in assay [2], 129 nM.

For the compound `COc1cc(C(=O)Nc2cc(C(F)(F)F)ccn2)ccc1-c1nc([C@H]2CN(C(=O)C3CC3)[C@@H](C)CO2)n2c(Cl)cnc(N)c12` [Example 47, 4-{8-amino-5-chloro-3-[(2R,5S)-4-(cyclopropylcarbonyl)-5-methylmorpholin-2-yl]imidazo[1,5-a]pyrazin-1-yl}-3-methoxy-N-[4-(trifluoromethyl)pyridin-2-yl]benzamide], the figures for the IC50 in assay [1] and in assay [2] were 5.59 nM and 6090 nM, respectively.

For the compound `C[C@H](O)C(=O)N1C[C@H](c2nc(-c3ccc(C(=O)Nc4cc(C(F)(F)F)ccn4)cc3F)c3c(N)nccn23)OC[C@H]1CO` [Example 59, 4-(8-amino-3-{(2R,5R)-5-(hydroxymethyl)-4-[(2S)-2-hydroxypropanoyl]morpholin-2-yl}imidazo[1,5-a]pyrazin-1-yl)-3-fluoro-N-[4-(trifluoromethyl)pyridin-2-yl]benzamide], the IC50 in assay [1] is 12.2 nM.

Turning to `COc1cc(C(=O)Nc2cc(C(F)(F)F)ccn2)ccc1-c1nc([C@H]2CN(C(=O)C(C)C)[C@@H](C)CO2)n2c(Cl)cnc(N)c12` [Example 15, 4-{8-amino-5-chloro-3-[(2R,5S)-5-methyl-4-(2-methylpropanoyl)morpholin-2-yl]imidazo[1,5-a]pyrazin-1-yl}-3-methoxy-N-[4-(trifluoromethyl)pyridin-2-yl]benzamide], the IC50 is 4.14 nM in assay [1] and 3260 nM in assay [2].

As to `C[C@H](O)C(=O)N1C[C@H](c2nc(-c3ccc(C(=O)Nc4cc(C(F)(F)F)ccn4)cc3F)c3c(N)nccn23)OC[C@H]1C` [Example 68, 4-(8-amino-3-{(2R,5R)-4-[(2S)-2-hydroxypropanoyl]-5-methylmorpholin-2-yl}imidazo[1,5-a]pyrazin-1-yl)-3-fluoro-N-[4-(trifluoromethyl)pyridin-2-yl]benzamide], the IC50 in assay [1] is 3.02 nM; in assay [2], 76.6 nM.

Take `C[C@H]1CO[C@@H](c2nc(-c3ccc(C(=O)Nc4ccccn4)cc3)c3c(N)nccn23)CN1C1CCOCC1` [Example 57, 4-{8-amino-3-[(2R,5S)-5-methyl-4-(tetrahydro-2H-pyran-4-yl)morpholin-2-yl]imidazo[1,5-a]pyrazin-1-yl}-N-pyridin-2-ylbenzamide]: the IC50 in assay [1] stood at 26.7 nM; in assay [2], 1020 nM.

Turning to `CCOc1cc(C(=O)Nc2cc(C(F)(F)F)n(C)n2)ccc1-c1nc([C@H]2CN(C3CCOCC3)[C@@H](C)CO2)n2c(Cl)cnc(N)c12` [Example 40, 4-{8-amino-5-chloro-3-[(2R,5S)-5-methyl-4-(tetrahydro-2H-pyran-4-yl)morpholin-2-yl]imidazo[1,5-a]pyrazin-1-yl}-3-ethoxy-N-[1-methyl-5-(trifluoromethyl)-1H-pyrazol-3-yl]benzamide], the IC50 in assay [1] was 5.87 nM; in assay [2], 4620 nM.

For the compound `CCOc1cc(C(=O)Nc2cc(C(F)(F)F)ccn2)ccc1-c1nc([C@H]2CC[C@H](C(F)(F)F)N(C(=O)C3CC3)C2)n2ccnc(N)c12` [Example 2, 4-{8-amino-3-[(3S,6R)-1-(cyclopropylcarbonyl)-6-(trifluoromethyl)piperidin-3-yl]imidazo[1,5-a]pyrazin-1-yl}-3-ethoxy-N-[4-(trifluoromethyl)pyridin-2-yl]benzamide], the IC50 in assay [1] was found to be 1.38 nM; in assay [2] it was 918 nM.

Consider `COCCC(=O)N1CC(C(=O)N2C[C@H](c3nc(-c4ccc(C(=O)Nc5cc(C(F)(F)F)ccn5)cc4OC)c4c(N)nccn34)OC[C@@H]2C)C1` [Example 33, 4-{8-amino-3-[(2R,5S)-4-{[1-(3-methoxypropanoyl)azetidin-3-yl]carbonyl}-5-methylmorpholin-2-yl]imidazo[1,5-a]pyrazin-1-yl}-3-methoxy-N-[4-(trifluoromethyl)pyridin-2-yl]benzamide], for which the IC50 in assay [1] was 2.05 nM; in assay [2] it was no less than 10000 nM.

As to `CCOc1cc(C(=O)Nc2cc(C(F)(F)F)n(C)n2)ccc1-c1nc([C@H]2CN(C(=O)[C@H](C)O)[C@@H](C)CO2)n2c(Cl)cnc(N)c12` [Example 6, 4-(8-amino-5-chloro-3-{(2R,5S)-4-[(2S)-2-hydroxypropanoyl]-5-methylmorpholin-2-yl}imidazo[1,5-a]pyrazin-1-yl)-3-ethoxy-N-[1-methyl-5-(trifluoromethyl)-1H-pyrazol-3-yl]benzamide], the figures for the IC50 in assay [1] and in assay [2] were 5.73 nM and no less than 10000 nM, respectively.

In the case of `CCOc1cc(C(=O)Nc2cc(C(F)(F)F)ccn2)ccc1-c1nc([C@H]2CN(C3CCOCC3)[C@@H](C)CO2)n2c(Cl)cnc(N)c12` [Example 27, 4-{8-amino-5-chloro-3-[(2R,5S)-5-methyl-4-(tetrahydro-2H-pyran-4-yl)morpholin-2-yl]imidazo[1,5-a]pyrazin-1-yl}-3-ethoxy-N-[4-(trifluoromethyl)pyridin-2-yl]benzamide], the IC50 was 2.22 nM in assay [1] and 1880 nM in assay [2].

Take `COc1cc(C(=O)Nc2cc(C(F)(F)F)ccn2)ccc1-c1nc([C@H]2CN(C3CN(C(=O)C4CC4)C3)[C@@H](C)CO2)n2ccnc(N)c12` [Example 29, 4-(8-amino-3-{(2R,5S)-4-[1-(cyclopropylcarbonyl)azetidin-3-yl]-5-methylmorpholin-2-yl}imidazo[1,5-a]pyrazin-1-yl)-3-methoxy-N-[4-(trifluoromethyl)pyridin-2-yl]benzamide]: the IC50 in assay [1] was 3.45 nM; in assay [2], 3860 nM.

In the case of `COc1cc(C(=O)Nc2cc(C(F)(F)F)ccn2)ccc1-c1nc([C@H]2CN(C3COC3)[C@@H](C)CO2)n2ccnc(N)c12` [Example 55, 4-{8-amino-3-[(2R,5S)-5-methyl-4-oxetan-3-ylmorpholin-2-yl]imidazo[1,5-a]pyrazin-1-yl}-3-methoxy-N-[4-(trifluoromethyl)pyridin-2-yl]benzamide], the IC50 in assay [1] is 2.54 nM; in assay [2], 2060 nM.

For the compound `CCN1C[C@H](c2nc(-c3ccc(C(=O)Nc4cc(C(F)(F)F)ccn4)cc3OC)c3c(N)ncc(Cl)n23)OC[C@@H]1C` [Example 26, 4-{8-amino-5-chloro-3-[(2R,5S)-4-ethyl-5-methylmorpholin-2-yl]imidazo[1,5-a]pyrazin-1-yl}-3-methoxy-N-[4-(trifluoromethyl)pyridin-2-yl]benzamide], the values for the IC50 in assay [1] and in assay [2] were 3.62 nM and 1020 nM, respectively.

With `CNC(=O)N1C[C@H](c2nc(-c3ccc(C(=O)Nc4cc(C(F)(F)F)ccn4)c(F)c3)c3c(N)nccn23)CC[C@@H]1C` [Example 94, (2S,5R)-5-[8-amino-1-(3-fluoro-4-{[4-(trifluoromethyl)pyridin-2-yl]carbamoyl}phenyl)imidazo[1,5-a]pyrazin-3-yl]-N,2-dimethylpiperidine-1-carboxamide], the IC50 in assay [1] came out at 0.374 nM.

As to `C[C@H]1CO[C@@H](c2nc(-c3ccc(C(=O)Nc4cc(C(F)(F)F)ccn4)cc3F)c3c(N)nccn23)CN1C(=O)C1CC1` [Example 86, 4-{8-amino-3-[(2R,5S)-4-(cyclopropylcarbonyl)-5-methylmorpholin-2-yl]imidazo[1,5-a]pyrazin-1-yl}-3-fluoro-N-[4-(trifluoromethyl)pyridin-2-yl]benzamide], in assay [2], the IC50 is 246 nM.

Take `COCC(=O)N1C[C@H](c2nc(-c3ccc(C(=O)Nc4cc(C(F)(F)F)ccn4)cc3F)c3c(N)nccn23)OC[C@H]1CO` [Example 56, 4-{8-amino-3-[(2R,5R)-5-(hydroxymethyl)-4-(methoxyacetyl)morpholin-2-yl]imidazo[1,5-a]pyrazin-1-yl}-3-fluoro-N-[4-(trifluoromethyl)pyridin-2-yl]benzamide]: the IC50 in assay [1] was 8.81 nM.

On to `CS(=O)(=O)CC(=O)N1C[C@H](c2nc(-c3ccc(C(=O)Nc4cc(C(F)(F)F)ccn4)cc3F)c3c(N)nccn23)OC[C@H]1CO` [Example 58, 4-(8-amino-3-{(2R,5R)-5-(hydroxymethyl)-4-[(methylsulfonyl)acetyl]morpholin-2-yl}imidazo[1,5-a]pyrazin-1-yl)-3-fluoro-N-[4-(trifluoromethyl)pyridin-2-yl]benzamide], for which the IC50 in assay [1] was determined as 6.92 nM.
